How the values were obtained:
[1] = tested on: Human immunodeficiency virus type 1 reverse transcriptase (Human immunodeficiency virus 1), Q72547 [M184V]; test: In vitro antiviral activity against HIV-1 Reverse transcriptase M184V mutant
[2] = target: Human immunodeficiency virus type 1 reverse transcriptase (Human immunodeficiency virus 1) (UniProt Q72547); test: In vitro antiviral activity against HIV-1 Reverse transcriptase wild type
[3] = tested on: HIV-1 reverse transcriptase (Human immunodeficiency virus 1); test: Ratio for inhibition of HIV-1 RT to that of type and HIV-1 RT M184V mutant was determined

Nc1ccn([C@@H]2O[C@H](CO)C=C2F)c(=O)n1 showed an EC90 [1] of 1.8 µM, an EC90 [2] of 8 µM and an FI [3] of 0.23.
With Nc1ccn(C2SC(CO)C=C2F)c(=O)n1 (configuration not stated) the EC90 [1] was 125 µM, the EC90 [2] was 5 µM and the FI [3] was 25.
For Nc1nc(=O)n([C@@H]2C=C[C@H](CO)O2)cc1F, the FI [3] was 0.8.

Source: ChEMBL document CHEMBL1136820, “The role of 2',3'-unsaturation on the antiviral activity of anti-HIV nucleosides against 3TC-resistant mutant (M184V)” (Bioorg Med Chem Lett, 2003)
